Marks after values point to notes of the source that are not given here. Each block holds one molecule with its values, some of them ahead of it.
Key:
c-Met = target: T1, c-Met (Homo sapiens, UniProt P08581); assay: Kinase binding assay (Met biochemical assay, affinity beads/qPCR)
T1 construct: T7 phage fusion (kinase-tagged T7 phage), or alternatively a DNA tag for qPCR; made in house; host or cells: E. coli BL21-derived host (T7 phage display) or HEK-293 cells
Protocol: (§1) Met, ALK Biochemical Assays
(§2) Kinase Assays. […] 23, p. […] 26, p.
(§3) For most assays, kinase-tagged T7 phage strains were grown in parallel in 24-well blocks in an E. coli host derived from the BL21 strain. E. coli were grown to log-phase and infected with T7 phage from a frozen stock (multiplicity of infection ˜0.1) and incubated with shaking at 32° C. until lysis (˜90 minutes). The lysates were centrifuged (6,000×g) and filtered ([…]) to remove cell debris. The remaining kinases were produced in HEK-293 cells and subsequently tagged with DNA for qPCR detection. […] The liganded beads were blocked with excess biotin and washed with blocking buffer (SeaBlock (Pierce), 1% BSA, 0.05% Tween 20, 1 mM DTT) to remove unbound ligand and to reduce non-specific phage binding. […] Test compounds were prepared as 40× stocks in 100% DMSO and directly diluted into the assay. All reactions were performed in polypropylene 384-well plates in a final volume of 0.04 ml. […] The kinase concentration in the eluates was measured by qPCR.

ALK = target: T2, ALK (Homo sapiens, UniProt Q9UM73); assay: Kinase binding assay (ALK biochemical assay, affinity beads/qPCR)
T2 construct: T7 phage fusion (kinase-tagged T7 phage), or alternatively a DNA tag for qPCR; made in house; host or cells: E. coli BL21-derived host (T7 phage display) or HEK-293 cells
T2 sequence (Q9UM73 19-1620): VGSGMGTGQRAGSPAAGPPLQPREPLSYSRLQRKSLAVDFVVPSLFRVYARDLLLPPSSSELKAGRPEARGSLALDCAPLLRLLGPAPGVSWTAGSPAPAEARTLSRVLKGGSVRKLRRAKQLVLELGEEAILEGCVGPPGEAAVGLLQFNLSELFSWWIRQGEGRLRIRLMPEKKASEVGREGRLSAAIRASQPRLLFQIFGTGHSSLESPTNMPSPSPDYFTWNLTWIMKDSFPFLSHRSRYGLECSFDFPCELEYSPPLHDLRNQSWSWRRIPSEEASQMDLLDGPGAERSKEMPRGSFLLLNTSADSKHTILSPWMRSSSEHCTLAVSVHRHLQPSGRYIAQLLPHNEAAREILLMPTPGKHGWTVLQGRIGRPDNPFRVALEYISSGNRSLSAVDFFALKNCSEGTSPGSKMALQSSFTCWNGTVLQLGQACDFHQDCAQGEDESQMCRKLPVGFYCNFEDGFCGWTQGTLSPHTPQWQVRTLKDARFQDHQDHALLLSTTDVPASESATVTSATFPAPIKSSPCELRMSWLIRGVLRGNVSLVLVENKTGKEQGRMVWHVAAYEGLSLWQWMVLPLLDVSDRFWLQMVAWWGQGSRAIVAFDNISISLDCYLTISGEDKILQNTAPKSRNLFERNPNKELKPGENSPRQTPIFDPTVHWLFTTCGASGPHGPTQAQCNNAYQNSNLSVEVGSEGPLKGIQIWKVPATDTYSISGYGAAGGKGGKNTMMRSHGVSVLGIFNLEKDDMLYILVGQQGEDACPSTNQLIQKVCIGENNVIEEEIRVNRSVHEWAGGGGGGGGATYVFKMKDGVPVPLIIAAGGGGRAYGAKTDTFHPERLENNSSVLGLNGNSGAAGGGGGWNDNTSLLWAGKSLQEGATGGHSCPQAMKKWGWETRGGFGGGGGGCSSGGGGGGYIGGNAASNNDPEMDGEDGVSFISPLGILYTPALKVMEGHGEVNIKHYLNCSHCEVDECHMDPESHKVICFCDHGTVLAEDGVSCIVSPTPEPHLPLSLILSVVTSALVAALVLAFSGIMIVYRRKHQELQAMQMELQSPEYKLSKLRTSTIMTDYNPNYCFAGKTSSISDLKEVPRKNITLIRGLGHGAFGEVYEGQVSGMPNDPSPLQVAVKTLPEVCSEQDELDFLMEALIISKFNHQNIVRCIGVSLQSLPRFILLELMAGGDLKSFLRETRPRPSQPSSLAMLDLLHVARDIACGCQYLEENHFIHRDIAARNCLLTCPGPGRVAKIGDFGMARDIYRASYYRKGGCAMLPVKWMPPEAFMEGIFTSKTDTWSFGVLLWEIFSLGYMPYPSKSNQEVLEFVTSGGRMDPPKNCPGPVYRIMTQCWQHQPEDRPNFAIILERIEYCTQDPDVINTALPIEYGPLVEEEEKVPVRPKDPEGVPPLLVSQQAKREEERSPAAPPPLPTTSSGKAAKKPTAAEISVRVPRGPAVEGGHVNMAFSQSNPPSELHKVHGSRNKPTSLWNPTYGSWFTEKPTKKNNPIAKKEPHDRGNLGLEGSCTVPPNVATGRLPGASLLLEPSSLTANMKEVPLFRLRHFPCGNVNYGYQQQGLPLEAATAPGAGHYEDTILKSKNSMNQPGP
Protocol: as §1, §2, §3

U-87 MG xenograft tumor = assay: In vivo anti-tumor efficacy against U-87MG tumor xenograft model; parameters: species or system Balb/c nude mice
Protocol: In Vivo Anti-Tumor Efficacy of Compound 1 of EXAMPLE 1 Against U-87MG Tumor Xenograft Model
Balb/c nude mice (6 weeks old, male) were purchased from Shanghai Slac Laboratory Animal Co. Ltd (Shanghai, China). All mice were maintained in a pathogen-free facility for ˜2 weeks before implantation. They were housed in plastic cages (4˜6 mice/cage) containing corn cob and maintained in a pathogen-free facility (20˜25° C., 30˜70% humidity) with a 12-h light:dark cycle.
U-87 MG xenograft model was established by implanting athymic Balb/c nude mice s.c in the right flank with U-87 MG cells, 3.6×10^6/mouse (120 ul). Tumors were allowed to reach 120˜380 mm^3 in size.
Tumor volumes were measured twice a week with caliper. Tumor volumes were calculated by the formula <Tumor volume=length×width^2/2>.
Percentage of tumor growth inhibition (GI) after initiation of treatment was calculated by the formula: GI=100×{1−[(tumor volumefinal−tumor volumeinitial for the compound-treated group)/(tumor volumefinal−tumor volumeinitial for the vehicle-treated group)]} Relative tumor volume is defined as the ratio of the volume at a given time and the volume at the start of treatment. The relative tumor volume (RTV) was calculated by the formula: RTV=100×TVT/TV0

[1] = 25 mg/kg ig BID, d28 post implantation
[2] = 25 mg/kg ig BID, d31 post implantation
[3] = 50 mg/kg ig BID, d28 post implantation
[4] = 50 mg/kg ig BID, d31 post implantation

T1 sequence (P08581 25-1390): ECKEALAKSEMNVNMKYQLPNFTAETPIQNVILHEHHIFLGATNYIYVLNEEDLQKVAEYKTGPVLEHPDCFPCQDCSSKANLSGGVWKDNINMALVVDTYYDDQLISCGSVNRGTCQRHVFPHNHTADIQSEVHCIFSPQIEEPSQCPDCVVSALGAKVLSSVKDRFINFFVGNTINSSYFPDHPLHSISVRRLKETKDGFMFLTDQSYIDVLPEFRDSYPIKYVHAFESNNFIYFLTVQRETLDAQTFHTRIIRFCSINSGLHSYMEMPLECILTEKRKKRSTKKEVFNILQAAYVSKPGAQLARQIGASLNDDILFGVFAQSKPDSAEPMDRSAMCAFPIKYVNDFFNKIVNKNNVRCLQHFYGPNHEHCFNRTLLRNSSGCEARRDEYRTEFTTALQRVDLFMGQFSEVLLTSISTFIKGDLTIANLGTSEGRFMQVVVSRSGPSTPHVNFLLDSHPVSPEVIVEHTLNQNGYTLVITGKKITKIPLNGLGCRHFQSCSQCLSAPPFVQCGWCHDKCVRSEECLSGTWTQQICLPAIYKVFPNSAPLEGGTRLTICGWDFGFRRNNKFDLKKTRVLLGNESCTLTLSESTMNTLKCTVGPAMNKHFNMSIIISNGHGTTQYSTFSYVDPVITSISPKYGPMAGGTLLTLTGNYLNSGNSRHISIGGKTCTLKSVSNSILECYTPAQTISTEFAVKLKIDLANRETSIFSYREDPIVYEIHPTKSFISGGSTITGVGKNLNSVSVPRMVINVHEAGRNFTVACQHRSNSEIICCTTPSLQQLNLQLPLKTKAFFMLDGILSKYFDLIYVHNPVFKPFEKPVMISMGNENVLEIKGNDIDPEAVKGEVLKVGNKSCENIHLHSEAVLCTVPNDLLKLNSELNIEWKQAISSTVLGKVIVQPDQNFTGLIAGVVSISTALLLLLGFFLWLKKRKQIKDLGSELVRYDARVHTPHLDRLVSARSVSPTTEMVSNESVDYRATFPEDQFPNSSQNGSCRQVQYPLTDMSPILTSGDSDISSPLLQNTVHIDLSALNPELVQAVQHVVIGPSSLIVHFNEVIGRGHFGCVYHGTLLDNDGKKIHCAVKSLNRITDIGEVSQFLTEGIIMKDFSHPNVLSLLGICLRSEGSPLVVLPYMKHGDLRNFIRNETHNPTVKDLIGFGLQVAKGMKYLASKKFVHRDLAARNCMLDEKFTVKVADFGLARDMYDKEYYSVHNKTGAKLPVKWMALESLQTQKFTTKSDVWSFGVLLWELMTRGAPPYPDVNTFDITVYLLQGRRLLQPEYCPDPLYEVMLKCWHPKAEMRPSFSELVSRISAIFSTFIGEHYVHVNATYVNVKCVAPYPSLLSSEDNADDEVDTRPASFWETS

IC50 (c-Met): < 5 nM
IC50 (ALK): > 10 nM
SMILES: COCCn1cc(NC(=O)c2cc(OC(C)c3c(Cl)ccc(F)c3Cl)c(N)nn2)ccc1=O (racemic) [Example 6, {6-amino-5-[(2,6-dichloro-3-fluorophenyl)ethoxy]pyridazin-3-yl}-N-[1-(2-methoxyethyl)-6-oxo-1,6-dihydro-pyridin-3-yl]carboxamide]

IC50 (c-Met): < 5 nM
IC50 (ALK): > 10 nM
SMILES: CCn1cc(NC(=O)c2cc(OC(C)c3c(Cl)ccc(F)c3Cl)c(N)nn2)ccc1=O (racemic) [Example 7, {6-amino-5-[(2,6-dichloro-3-fluorophenyl)ethoxy]pyridazin-3-yl}-N-(1-ethyl-6-oxo-1,6-dihydro-pyridin-3-yl)carboxamide]

Second part, the molecule before the results:

SMILES: C[C@@H](Oc1cc(C(=O)Nc2ccc(=O)n(C)c2)nnc1N)c1c(Cl)ccc(F)c1Cl [Example 1, {5-[(1R)-1-(2,6-dichloro-3-fluorophenyl)ethoxy]-6-aminopyridazin-3-yl}-N-(1-methyl-6-oxo-1,6-dihydro-pyridin-3-yl)carboxamide]
IC50 (c-Met): < 5 nM
IC50 (ALK): > 10 nM
tumor volume (mean ± S.E) (U-87 MG xenograft tumor; 25 mg/kg ig BID, d24 post implantation (start of treatment)): 230.4 ± 23.0 mm^3
tumor growth inhibition GI (U-87 MG xenograft tumor; [1]): 62.14%
tumor volume (mean ± S.E) (U-87 MG xenograft tumor; [1]): 365.7 ± 29.3** mm^3
tumor growth inhibition GI (U-87 MG xenograft tumor; [2]): 77.04%
tumor volume (mean ± S.E) (U-87 MG xenograft tumor; [2]): 453.7 ± 19.7** mm^3
tumor volume (mean ± S.E) (U-87 MG xenograft tumor; 25 mg/kg ig BID, d35 post implantation): 627.7 ± 33.9** mm^3
tumor growth inhibition GI (U-87 MG xenograft tumor; 25 mg/kg ig BID, d35 post implantation (after 11 days of treatment)): 65.95%
tumor volume (mean ± S.E) (U-87 MG xenograft tumor; 50 mg/kg ig BID, d24 post implantation (start of treatment)): 230.2 ± 24.5 mm^3
tumor growth inhibition GI (U-87 MG xenograft tumor; [3]): 78.82%
tumor volume (mean ± S.E) (U-87 MG xenograft tumor; [3]): 305.9 ± 22.0** mm^3
tumor growth inhibition GI (U-87 MG xenograft tumor; [4]): 85.52%
tumor volume (mean ± S.E) (U-87 MG xenograft tumor; [4]): 337.4 ± 27.8** mm^3
tumor volume (mean ± S.E) (U-87 MG xenograft tumor; 50 mg/kg ig BID, d35 post implantation): 371.5 ± 34.4** mm^3
tumor growth inhibition GI (U-87 MG xenograft tumor; 50 mg/kg ig BID, d35 post implantation (after 11 days of treatment)): 88.71%

SMILES: C[C@@H](Oc1cc(C(=O)Nc2ccc(C(=O)N3CCN(C)CC3)cc2)nnc1N)c1c(Cl)ccc(F)c1Cl [reference compound]
IC50 (c-Met): < 5 nM
IC50 (ALK): < 5 nM

SMILES: CC(Oc1cc(C(=O)Nc2ccc(=O)[nH]c2)nnc1N)c1c(Cl)ccc(F)c1Cl (racemic) [Example 5, {6-amino-5-[(2,6-dichloro-3-fluorophenyl)ethoxy]pyridazin-3-yl}-N-(6-oxo-1,6-dihydro-pyridin-3-yl)carboxamide]
IC50 (c-Met): < 5 nM
IC50 (ALK): > 10 nM

SMILES: CC(Oc1cc(C(=O)NC2CCC(=O)N(C)C2)nnc1N)c1c(Cl)ccc(F)c1Cl (centres unmarked) [Example 4]
IC50 (c-Met): > 100 nM
IC50 (ALK): > 100 nM

— patent US9242958B2, “Substituted pyridazine carboxamide compounds as kinase inhibitor compounds” (Xcovery Holding Company LLC, priority 2010, dated 2016)
